Consider three molecules from patent US20130136753A1, “PAXILLIN AS A THERAPEUTIC OR DIAGNOSTIC MARKER FOR CANCER” (UNIVERSITY OF ROCHESTER, priority 2010, published 2013).

Data set [1] deals with PC3 cells. Kind of data set: MTT cell proliferation assay, PC3 cells. It is filed as cell-based, human. The conditions noted are these: 100 nM PMA 24 hours, 20 μM U0126. The protocol:
PC3 or LnCAP cells were treated with non-targeting siRNA pool (ThermoFisher Scientific) or paxillin-specific siRNA according to manufacturer's instructions. Two sets of human paxillin siRNAs were used: 1) human paxillin siRNA (Santa Cruz Biotechnology) containing three target-specific 20-25 nucleotide siRNAs or 2) human paxillin siRNA ON-TARGET plus SMARTpoo1 (ThemoFisher Scientific) containing four siRNAs targeting the paxillin mRNA. The latter was used for all experiments described in the accompanying Examples, although results were similar with both pools. For experiments involving constitutively active (“CA”) Raf (William Walker, University of Pittsburgh) or MEK (Melanie Cobb, University of Texas Southwestern Medical Center), cells were co-transfected with paxillin or nonspecific siRNAs and cDNAs encoding caRaf or caMEK. After 72 hours, cells were treated overnight with serum-free, phenol red-free RPMI 1640 media and stimulated with 0.1% ethanol/DMSO (vehicle), 25 nM DHT (Steraloids), 20 ng/ml EGF (BD Biosciences), or 100 nM PMA (Sigma) for the times indicated for Western blots or 24 hours for MTT assays.
MTT assays were performed using a colorimetric assay cell proliferation kit (Roche Applied Science) according to the manufacturer's instructions.

The subject of data set [2] is paxillin. As to the kind of experiment: Western blot of paxillin phosphorylation in LnCAP cells. The format is cell-based, human. The conditions noted are these: 20 μM U0126. The protocol:
LnCAP and PC3 cell lines were obtained from ATCC and cultured in RPMI 1640 medium (Invitrogen) containing 10% FBS and 1% penicillin-streptomycin. For experiments involving pharmacological inhibitors, cells were treated overnight with serum-free, phenol red-free RPMI 1640 media. Thereafter, cells were treated with vehicle (0.1% DMSO) or inhibitors Galardin, PP2, AG1478 (Calbiochem), flutamide, or erlotinib (Sigma) for 30 minutes before stimulation with 0.1% ethanol (vehicle) or 25 nM DHT for 30 minutes.
Western blots were performed as described (Evaul and Hammes, “Cross-Talk Between G Protein-Coupled and Epidermal Growth Factor Receptors Regulates Gonadotropin-Mediated Steroidogenesis in Leydig Cells,” J. Biol. Chem. 283(41):27525-27533 (2008), which is hereby incorporated by reference in its entirety). Primary antibodies were: paxillin, paxillinphospho-Tyr118, paxillin-phospho-Tyr31, Akt1/2/3, Akt1/2/3 phospho-Ser473, EGFR at 1:1000 dilution, and EGFR phospho-Tyr845 (1:500) (Santa Cruz Biotechnology); paxillin phospho-Ser126 (Invitrogen); paxillin phospho-Ser83 (ECM Biosciences); p44/42-Erk1/2, phospho-p44/42-Erk1/2 (Thr202/[…]), phospho-Ser217/221-MEK1/2, src, src-phospho-Tyr416 (Cell Signaling Technology) at 1:1000 dilutions and f3-actin (1:5000, Millipore).

In data set [3] the test system is paxillin. As to the kind of experiment: Western blot of paxillin phosphorylation in PC3 cells. It is filed as cell-based, human. The conditions noted are these: 20 μM U0126. How it is done:
FIGS. 8A-D illustrate that PMA-mediated Erk1/2 activation is paxillin-independent, but PMA-mediated proliferation still requires serine phosphorylation of paxillin. In FIG. 8A, paxillin (Pax) or non-targeting (Nsp) siRNA-treated LnCAP cells were serum-starved and treated with PMA (100 nM) or EGF (20 ng/ml) for 30 minutes. Western blots were performed for paxillin and total and phosphorylated Erk1/2. In FIG. 8B, serum-starved PC3 cells were pretreated with 0.1% DMSO or 20 μM U0126 ([…]) for 30 minutes before stimulation with PMA (100 nM) or EGF (20 ng/ml) for another 30 minutes. Thereafter, levels of paxillin and phosphorylated paxillin at tyrosine-118 (Pax p-Y118) and serine-126 (Pax p-S126) were detected by Western blot. In FIG. 8C, cell proliferation (MTT assay) of PC3 cells treated (24 hours) with 0.1% DMSO (M) or 100 nM PMA in the presence or absence of 20 μM U0126. In FIG. 8D, PC3 cells were initially transfected with Paxillin (Pax) or non-targeting (Nsp) siRNA. After 96 hours, media were removed, and cells were then either mock-transfected or transfected with wild-type paxillin (left panel) or paxillin mutated at tyrosines 31/118 (Y31A/Y118A, middle panel) or serines 83/126/130 (S83A/S126A/S130A, right panel). […] Cell proliferation was detected by MTT. […]
For orientation: Immunoblotting shows a protein as a band on a membrane.

Data set [4] has as its system PSA mRNA. As to the kind of experiment: PSA mRNA expression by real time PCR in LnCAP cells. The following applies: 20 μM U0126 or 20 μM AG1478 30 minutes before 25 nM DHT 24 hours. The format is cell-based, human. The protocol: RNA was isolated with the RNeasy mini kit (Qiagen) according to manufacturer's instructions. Levels of Kallikrein-related peptidase-3 (KLK3, or prostate-specific antigen (“PSA”)), paxillin, cyclin D1, and GAPDH expression were analyzed by the A/A-Ct method using Taqman gene expression assay primers (assay ID# Hs99999905_ml-GAPDH, Hs02576345_ml-KLK3, Hs99999004_ml-CCND1, and Hs01104424-ml-PXN; Applied Biosystems) on an ABI StepOne plus real-time PCR machine.

Data set [5] has as its system HER-2 overexpressing breast cancer cells. The conditions noted are these: cited from earlier work.
Data set [6] has as its system ovarian clear cell carcinoma cell line TOV-21G. The following applies: cited from earlier work.

`N#CC(=C(/N)Sc1ccccc1N)/C(C#N)=C(\N)Sc1ccccc1N` [U0126]: in data set [1], the “PMA-induced proliferation of PC3 cells” value is reported as “blocked”. Besides, in data set [2], the “DHT-induced phosphorylation of paxillin at serines 83/126” value is given as “blocked”. In addition, the “PMA-induced serine phosphorylation of paxillin” value in data set [3] is listed as “blocked”. For the same molecule, the “DHT-induced expression of PSA mRNA” value in data set [4] is “abrogated”.

B1: Aptamer S6: RNA aptamer binding HER-2 overexpressing breast cancer cells (nucleic acid)
chain: GGGAGAUACCAGCUUAUUCAAUUUGGAUGGGGAGAUCCGUUGAGUAAGCGGGCGUGUCUCUCUGCCGCCUUGCUAUGGGGAGAUAGUAAGUGCAAUCU
modifications: listed as RNA, chemistry not given here
As to B1, the “binding to HER-2 overexpressing breast cancer cells” value in data set [5] was “binds specifically”.

B2: Aptamer aptTOV1: aptamer binding ovarian clear cell carcinoma cell line TOV-21G (nucleic acid)
chain: UCCAGAGUGACGCAGCAGAUCUGUGUAGGAUCGCAGUGUAGUGGACAUUUGAUACGACUGGCUCGACACGGUGGCUUA
modifications: listed as RNA, chemistry not given here
For B2, the “binding to TOV-21G cells” value in data set [6] is “high affinity”.
